Ends that are not written are not given here.
Legend:
adenylate cyclase [1] = settings: measured as amides; for pA2 Value: negative logarithm of the antagonist concentration that reduces the response to 1 unit of agonist to that of 0.5 unit; for % Relative Activity: relative potency in stimulating adenylate cyclase
Experimental: The inhibition index is the molar ratio of antagonist to agonist which reduces the biological response to one half of the value for the agonist in the absence of antagonist. It will be discussed more fully hereinafter.
Adenylate Cyclase Assay. The assay on liver membranes was performed according to Salomon et al. [Salomon, Y., Londos, C. & Rodbell, M. Anal. Biochem. 58, 541, 548 (1974)].
The purpose of the adenylate cyclase assay is to measure the ability of the compound under test to stimulate the activity of adenylate cyclase. The assays are used to measure relative potency, maximum activity and inhibition index.
The inhibition index, defined above, was determined from adenylate cyclase assays by two different protocols. • 1. A glucagon standard curve for cAMP vs glucagon concentration was established. Then another glucagon assay curve was measured in the presence of a constant amount of antagonist. […] A series of tubes were set up containing an amount of glucagon which will produce 90% of maximum response. Increasing amounts of antagonist were then added and the concentration that reduced the response to 45% of maximum was determined.

glucagon receptor = settings: prior-art antagonist, background; cited from earlier work
[2] = tested on: another binding system in the hepatocyte membrane; settings: prior-art antagonist, background; cited from earlier work
adenylate cyclase [3] = settings: prior-art antagonist, background; cited from earlier work

Row | Compound | pA2 Value (adenylate cyclase [1]) | % Relative Activity (adenylate cyclase [1]) | binding to the glucagon receptor (glucagon receptor) | production of inositol trisphosphate and calcium ions [2] | activation of adenylate cyclase (adenylate cyclase [3])
1 | CSCC[C@H](NC(=O)[C@H](CC(C)C)NC(=O)[C@H](Cc1c[nH]c2ccccc12)NC(=O)[C@H](CCC(N)=O)NC(=O)[C@@H](NC(=O)[C@H](Cc1ccccc1)NC(=O)[C@H](CC(=O)O)NC(=O)[C@H](CCC(N)=O)NC(=O)[C@H](C)NC(=O)[C@H](CCCNC(=N)N)NC(=O)[C@H](CCCNC(=N)N)NC(=O)[C@H](CO)NC(=O)[C@H](CC(=O)O)NC(=O)[C@H](CC(C)C)NC(=O)[C@H](Cc1ccc(O)cc1)NC(=O)[C@H](CCCCN)NC(=O)[C@H](CO)NC(=O)[C@H](Cc1ccc(O)cc1)NC(=O)[C@@H](CC(=O)O)NC(=O)[C@H](CO)NC(=O)[C@@H](NC(=O)[C@H](Cc1ccccc1)NC(=O)[C@@H](NC(=O)CNC(=O)[C@H](CCC(N)=O)NC(=O)[C@@H](N)CO)[C@@H](C)O)[C@@H](C)O)C(C)C)C(=O)N[C@@H](CC(N)=O)C(=O)N[C@H](C(N)=O)[C@@H](C)O [compound 10, des-His^1[D-Asp^9]] | 5.9 | <0.0028% | – | – | –
2 | CSCC[C@H](NC(=O)[C@H](CC(C)C)NC(=O)[C@H](Cc1c[nH]c2ccccc12)NC(=O)[C@H](CCC(N)=O)NC(=O)[C@@H](NC(=O)[C@H](Cc1ccccc1)NC(=O)[C@H](CC(=O)O)NC(=O)[C@H](CCC(N)=O)NC(=O)[C@H](C)NC(=O)[C@H](CCCNC(=N)N)NC(=O)[C@H](CCCNC(=N)N)NC(=O)[C@H](CO)NC(=O)[C@H](CC(=O)O)NC(=O)[C@H](CC(C)C)NC(=O)[C@H](Cc1ccc(O)cc1)NC(=O)[C@H](CCCCN)NC(=O)[C@H](CO)NC(=O)[C@H](Cc1ccc(O)cc1)NC(=O)[C@@H](CCC(=O)O)NC(=O)[C@H](CO)NC(=O)[C@@H](NC(=O)[C@H](Cc1ccccc1)NC(=O)[C@@H](NC(=O)CNC(=O)[C@H](CCC(N)=O)NC(=O)[C@@H](N)CO)[C@@H](C)O)[C@@H](C)O)C(C)C)C(=O)N[C@@H](CC(N)=O)C(=O)N[C@H](C(N)=O)[C@@H](C)O [compound 11, des-His^1[D-Glu^9]] | 5.4 | <0.0037% | – | – | –
3 | COC(=O)CC[C@H](NC(=O)[C@H](CO)NC(=O)[C@@H](NC(=O)[C@H](Cc1ccccc1)NC(=O)[C@@H](NC(=O)CNC(=O)[C@H](CCC(N)=O)NC(=O)[C@@H](N)CO)[C@@H](C)O)[C@@H](C)O)C(=O)N[C@@H](Cc1ccc(O)cc1)C(=O)N[C@@H](CO)C(=O)N[C@@H](CCCCN)C(=O)N[C@@H](Cc1ccc(O)cc1)C(=O)N[C@@H](CC(C)C)C(=O)N[C@@H](CC(=O)O)C(=O)N[C@@H](CO)C(=O)N[C@@H](CCCNC(=N)N)C(=O)N[C@@H](CCCNC(=N)N)C(=O)N[C@@H](C)C(=O)N[C@@H](CCC(N)=O)C(=O)N[C@@H](CC(=O)O)C(=O)N[C@@H](Cc1ccccc1)C(=O)N[C@H](C(=O)N[C@@H](CCC(N)=O)C(=O)N[C@@H](Cc1c[nH]c2ccccc12)C(=O)N[C@@H](CC(C)C)C(=O)N[C@@H](CCSC)C(=O)N[C@@H](CC(N)=O)C(=O)N[C@H](C(N)=O)[C@@H](C)O)C(C)C [compound 12, des-His^1[Glu^9-(OCH3)]] | 7.35 | 0.011% | – | – | –
4 | CCCC[C@H](NC(=O)[C@H](CO)NC(=O)[C@@H](NC(=O)[C@H](Cc1ccccc1)NC(=O)[C@@H](NC(=O)CNC(=O)[C@H](CCC(N)=O)NC(=O)[C@@H](N)CO)[C@@H](C)O)[C@@H](C)O)C(=O)N[C@@H](Cc1ccc(O)cc1)C(=O)N[C@@H](CO)C(=O)N[C@@H](CCCCN)C(=O)N[C@@H](Cc1ccc(O)cc1)C(=O)N[C@@H](CC(C)C)C(=O)N[C@@H](CC(=O)O)C(=O)N[C@@H](CO)C(=O)N[C@@H](CCCNC(=N)N)C(=O)N[C@@H](CCCNC(=N)N)C(=O)N[C@@H](C)C(=O)N[C@@H](CCC(N)=O)C(=O)N[C@@H](CC(=O)O)C(=O)N[C@@H](Cc1ccccc1)C(=O)N[C@H](C(=O)N[C@@H](CCC(N)=O)C(=O)N[C@@H](Cc1c[nH]c2ccccc12)C(=O)N[C@@H](CC(C)C)C(=O)N[C@@H](CCSC)C(=O)N[C@@H](CC(N)=O)C(=O)N[C@H](C(N)=O)[C@@H](C)O)C(C)C [compound 18, des - His^1 [Nle^9] glucagon amide] | 7.6 | <0.0012% | – | – | –
5 | DSQGTFTSHYSKYLDSRRAQDFVQWLMNT-NH2 [compound 9, Asp^1His^9] | 6.3 | <0.0009% | – | – | –
6 | HSQGTFTSYSKYLDSRRAQDFVQWLMNT-NH2 [compound 2, des-Asp^9] | 7.2 | 1.04% | – | – | –
7 | Nα- trinitrophenyl [12-homoarginine] glucagon | – | – | does bind to the glucagon receptor | activates another binding system in the hepatocyte membrane leading to the production of inositol trisphosphate and calcium ions | without significant activation of adenylate cyclase
8 | SQGTFTSFYSKYLDSRRAQDFVQWLMNT-NH2 [compound 19, des-His^1[Phe^9]] | 6.2 | <0.0003% | – | – | –
9 | SQGTFTSGYSKYLDSRRAQDFVQWLMNT-NH2 [compound 15, des - His^1 [Gly^9] glucagon amide] | 6.24 | <0.006% | – | – | –
10 | SQGTFTSHYSKYLDSRRAQDFVQWLMNT-NH2 [compound 17, des-His^1[His^9]] | 7.0 | 0.011% | – | – | –
11 | SQGTFTSKYSKYLDSRRAQDFVQWLMNT-NH2 [compound 16, des - His^1 [Lys^9] glucagon amide] | 7.35 | <0.0012% | – | – | –
12 | SQGTFTSNYSKYLDSRRAQDFVQWLMNT-NH2 [compound 13, des-His^1[Asn^9]] | 6.52 | <0.0026% | – | – | –
13 | SQGTFTSQYSKYLDSRRAQDFVQWLMNT-NH2 [compound 14, des-His^1[Gln^9]] | 8.21 | <0.003% | – | – | –
14 | SQGTFTSYSKYLDSRRAQDFVQWLMNT-NH2 [compound 20, des-His^1des-Asp^9] | 5.5 | <0.0022% | – | – | –
